From article PMC5663395, “Chemical Validation of Methionyl-tRNA Synthetase as a Druggable Target in Leishmania donovani” (ACS Infectious Diseases, 2017) come the findings set out here.

For test [1], the system named is L. donovani axenic amastigotes. Briefly: Leishmania axenic amastigote viability assay. The format is cell-based, Leishmania donovani. As to conditions: Leishmania donovani; Table 1; read-out: Leishmania Axenic Amastigote EC50. Here is the method:
carried out as described above using 5%, 10% and 20% FBS in the media. To examine the effect of the methionine concentration on the potency of DDD806905 parasites were grown in the presence of drug and in the presence (or absence) of 20-fold excess methionine (0.3 g/l). IC50 curve fitting was undertaken in GraFit version 6.0 (Erithacus Software) using a four-parameter logistic dose-response curve (equation 6), with s the slope.
Leishmania Axenic Amastigote Assay
The Leishmania axenic amastigote assay was performed using the method published in Nühs et al 15.
Leishmania Intracellular Amastigote Assay
The intramacrophage Leishmania assay was performed using a modified version of the method described in De Rycker et al 16. […]
amphotericin B was included. Controls were as follows: columns 11 and 12: DMSO, columns 23 and 24: amphotericin B (final concentration 2 µM). 350 nl of compound was pre-dispensed into 384-well sterile intermediary plates. To the intermediary plates, 35 µl of THP-1 media was added and plates were shaken for >5 min to ensure complete mixing. THP-1 cells (8,000 per well, 50 µl) were plated into black clear-bottom 384-well plates (Corning) in presence of 20 nM phorbol 12-myristate 13- […]
in a humidified incubator for 75 h. The cells were then washed with 450 µl sterile phosphate buffered saline (PBS) supplemented with 1 mM CaCl2, 0.5 mM MgCl2, 0.1% (w/v) bovine serum albumin (PBS-A) and amastigotes were added to all wells at a multiplicity of infection of 5 (40,000 amastigotes per well). After 40 min at room temperature, plates were returned to the incubator.
Amastigotes were incubated in the presence of THP-1 macrophages for 16 h. Any remaining extracellular amastigotes were subsequently removed by washing with PBS-A followed by addition of 25 µl of the compound pre-dilutions using an Ipette-pro pipetting station (FluidX). The final dilution of each compound was 200-fold. Plates were incubated for 96 h and then washed (250 µl PBS-A) and fixed (4 % (v/v) formaldehyde-PBS, 30 min, room temperature). After fixation, the wells were washed with 250 µl PBS, stained (10 µg/ml DAPI, 0.4 µg/mL HCS Cellmask Deep Red in PBS + 0.1% (v/v) Triton X-100, 30 min, room temperature) and washed with 250 µl PBS. Finally, PBS + 0.05% (v/v) thimerosal was added to the wells, the plates were sealed and imaged on a high-content microscope (GE IN Cell 2000) using a 10x objective. Image analysis was carried out with GE IN Cell Analyzer 1000 Workstation using the “Multi Target Analysis” module. For each well, i) THP-1 cell count (cytotoxicity readout) and ii) average number of amastigotes per cell (potency readout) were […]

For test [2], the target named is LdMetRS (Leishmania donovani, UniProt A0A3Q8IBX2). The test is described as follows: LdMetRS biochemical enzyme assay (BIOMOL Green). As to conditions: Table 1; read-out: LdMetRS IC50. Here is the method: LdMetRS Assay Development and Kinetic Parameter Determinations
LdMetRS, sequence (A0A3Q8IBX2 entry or part of it): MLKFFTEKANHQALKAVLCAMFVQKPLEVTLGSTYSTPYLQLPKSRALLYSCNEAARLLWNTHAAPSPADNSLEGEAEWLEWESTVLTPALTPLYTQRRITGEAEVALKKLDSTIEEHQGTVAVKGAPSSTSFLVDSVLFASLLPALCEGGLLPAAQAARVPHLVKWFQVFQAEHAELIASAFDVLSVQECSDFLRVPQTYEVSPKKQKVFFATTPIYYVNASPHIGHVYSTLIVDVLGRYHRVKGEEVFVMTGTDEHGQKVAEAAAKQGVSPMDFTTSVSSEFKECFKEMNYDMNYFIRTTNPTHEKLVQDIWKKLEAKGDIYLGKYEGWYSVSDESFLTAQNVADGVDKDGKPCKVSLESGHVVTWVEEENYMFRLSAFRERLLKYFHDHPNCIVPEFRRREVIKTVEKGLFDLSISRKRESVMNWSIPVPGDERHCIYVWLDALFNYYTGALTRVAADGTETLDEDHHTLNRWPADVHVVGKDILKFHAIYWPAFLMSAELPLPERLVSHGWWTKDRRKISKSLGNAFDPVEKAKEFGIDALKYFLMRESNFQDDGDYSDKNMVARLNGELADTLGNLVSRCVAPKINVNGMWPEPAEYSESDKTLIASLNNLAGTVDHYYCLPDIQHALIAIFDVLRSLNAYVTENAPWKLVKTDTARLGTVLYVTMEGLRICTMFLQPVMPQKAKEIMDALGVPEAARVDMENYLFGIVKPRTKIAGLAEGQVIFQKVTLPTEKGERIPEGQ
Activity of the LdMetRS enzyme was determined by monitoring levels of pyrophosphate released during the first step of the enzymatic reaction. The pyrophosphate formed was converted to two inorganic phosphate molecules using a pyrophosphatase enzyme and levels of the resulting phosphate molecules measured using the BIOMOL® Green reagent (Enzo Life Sciences) 2.
Following optimization of the assay buffer and determination of the enzyme linearity, 384-well plate based assays were carried out at room temperature in a 50 μl reaction volume containing 30 mM Tris, pH 8.0, 140 mM NaCl, 30 mM KCl, 40 mM MgCl2, 0.01% (v/v) Brij-35, 1 mM DTT, 1 U/ml pyrophosphatase, 50 nM recombinant LdMetRS, and varying concentrations of substrates. Michaelis constants for the ATP and methionine substrates were determined in an end point assay using the above buffer and enzyme conditions. Data were fitted to the modified Michaelis-Menten equations […]
Equation 1 (Hill equation): […]
Equation 2 (High substrate inhibition Michaelis-Menten equation): […]
LdMetRS Inhibitor Studies
All test compounds were solubilized in 100% DMSO to a concentration of 10 mM. To generate IC50 data for the compounds, assay ready plates containing 10-point inhibitor curves (half-log serial dilutions) were prepared using an Echo® 550 (Labcyte).
Following preparation of the inhibitor curves, assays were carried out at room temperature in clear, flat bottom, polystyrene, 384-well plates (Greiner). Each assay was performed in a 50 μl reaction volume containing 30 mM Tris; pH 8.0, 140 mM NaCl, 30 mM KCl, 40 mM MgCl2, 0.01% (v/v) Brij-35, 1 mM DTT, 1 U/ml pyrophosphatase, 50 nM recombinant LdMetRS, 50 µM methionine and 100 µM […]
Assays were performed by adding 25 μl buffer with enzyme to assay plates (with buffer only added to ‘no enzyme’ control wells) before the reaction was initiated with the addition of a 25 μl mix containing methionine, ATP and pyrophosphatase to all wells. Following a 120 min reaction at room temperature the assay was stopped with the addition of 50 μl BIOMOL® Green. The BIOMOL® Green signal was allowed to develop for 30 min before the absorbance of each well was read at 650 nm using an EnVision multilabel plate reader (PerkinElmer Life Sciences). All liquid dispensing steps were carried out using a Thermo Scientific WellMate dispenser (Matrix).
ActivityBase from IDBS (version 8.0.5.4) was used for data processing and analysis. All IC50 curve fitting was undertaken using ActivityBase XE (version 7.7.1) from IDBS. A four-parameter logistic dose-response curve was utilized with prefit used for all four parameters.
For DDD806905 Kiapp determinations, data fitting to the Morrison equation (equation 3) was carried out using GraFit v6.0 (Erithacus Software). It should be noted that data for fitting to the Morrison equation was normalised to a ‘100 µM DDD806905’ control rather than a ‘no enzyme’ control as […]
Equation 3 (Morrison equation): […]
vi = K1 −−([ ] [ ]ET+IT+Ki)−([ ] [ ]ET+IT+i)[ ] [ ]TIE4T
LdMetRS Mode of Inhibition Studies
To establish the mode of inhibition of DDD806905, data sets (generated using the BIOMOL® Green assay platform previously described) were collected by varying both the inhibitor and substrate concentrations. Using GraFit v6.0 (Erithacus Software) each data set was individually fitted to the Michaelis-Menten equation or the modified high substrate inhibition Michaelis-Menten equation described above (equation 2), and the resulting Lineweaver-Burk plots were examined for diagnostic […]
Data sets were then globally fitted to the appropriate model (with equations 4 and 5 used for […]
If more than one model appeared possible, then data were fitted to both and examined for significance using the F-test function in GraFit.

Test [3] concerns THP-1 lysosomes. Briefly: Lysosomotropism assay (LysoTracker Red competition). The settings on record: PMA-differentiated THP-1 cells, 30 min. The class given is cell-based, human. On the procedure:
calculated, both in terms of pEC50 values. MIC (minimum inhibitory concentration) values are defined as the lowest concentration tested at which maximal inhibition is reached.
THP-1 cells were differentiated in 96-well plates with PMA as described above. Following differentiation the cells were treated for 30 min with dose-response curves of test compounds in presence of 100 nM LysoTracker Red DND-99 (Thermo Fisher) and 5 µg/ml Hoechst 33342. Next cells were washed 3 times with Hanks Buffered Saline Solution (Gibco) and imaged on a Perkin Elmer Operetta system. An image analysis algorithm to measure mean Lysotracker Red DND-99 intensity per cell was developed in Columbus. Mean Intensity was normalised using a no dye control (100% effect) and DMSO treated wells stained with Lysotracker Red DND-99 (0% effect control). Dose-response curves were fitted for the test compounds using a four-parameter equation (equation 5 above) and constrained to 0 and 100% where necessary.
To measure the pKa of DDD806905, a fast UV-metric method was performed using a Sirius T3 instrument (Sirius Analytical, U.K.). The calculation of the pKa was determined using the Sirius T3 refine software (Sirius Analytical, U.K.). In brief, the UV-metric pKa method is based on measuring pH during an acid-base titration and monitoring UV absorbance shift. The ionisation curve (Bjerrum curve) was then used to determine the pH where exactly 50 % of neutral and 50 % of ionised species was present. DDD806905 must be fully dissolved throughout the titration and so the titration is set to start at the pH where DDD806905 is in its fully ionised state. The appearance of precipitate was monitored throughout the experiment by a turbidity sensing device. […] The pKas of DDD806905 was determined at the pH where there was maximal change in UV absorbance with respect to pH. […]
LogD7.4 values were quantified using a Sirius T3 instrument (Sirius Analytical, U.K.). […] The instrument software calculated the pH of each data point using mass and charge balance equations and then fitted this theoretical data to the experimental data. […]

Test [4] deals with Leishmania donovani liver parasite burden. The test is described as follows: Mouse visceral leishmaniasis efficacy model. As to conditions: 30 mg/kg oral once daily for 10 days.

For the compound `O=c1nc(NCCCNS(=O)(=O)c2cc(Cl)cc(Cl)c2)[nH]c2ccccc12` [Compound 28], the EC50 in test [1] came out at 19 µM. In addition, the IC50 in test [2] was 1.9 µM. In test [3], the “competition with lysotracker red accumulation in THP-1 lysosomes” value was “does not compete with lysotracker red”. Regarding `CCN(CC)CCCC(C)Nc1ccnc2cc(Cl)ccc12` (centres unmarked) [chloroquine, reference compound], the “competition with lysotracker red accumulation in THP-1 lysosomes” value in test [3] is “did compete with lysotracker red accumulation”. In the case of `CCCCCCCCCCCCCCCCOP(=O)([O-])OCC[N+](C)(C)C` [miltefosine, reference compound], the “reduction (knock-down) of liver parasite burden (LDU) vs vehicle” value in test [4] turned out to be 99.6%.
